For test [1], the system named is recombinant human Dicer processing pre-miR16-1. The experiment in a line: Dicer activity assay in the presence of peptide, substrate pre-miR16-1. The format is biochemical. The following applies: 400 nM peptide, pre-miR16-1 substrate, FIG. 2. The protocol: Two types of pre-miRNA (pre-let7a-1, pre-miR16-1) used as the substrate for the Dicer enzyme activity assay was ordered and manufactured by ST Pharm Co., Ltd (FIG. 1). For Dicer activity assay, the 5′ end of the synthesized pre-miRNA was labeled with ^32p isotope. Two pmole of each pre-miRNA was isotope labeled with […] of [g-^32P]ATP (New England Biolabs) using 10 units of T4 polynucleotide kinase (New England Biolabs). Total volume of 10 μl was isotope labeled for 1 hr at 37° C. The isotope labeled RNA obtained after the reaction was purified using G-25 Sephadex column (Sigma). The purified substrate was used for measuring Dicer enzyme activity. Total reaction mixture of 30 μl containing 1 nM of isotope labeled pre-miRNA and 0.001 u/μl of recombinant human Dicer (Genlantis, CA, USA) were incubated at 37° C. in 24 mM 4-(2-hydroxyethyl)-1-piperazineethanesulfonic acid, HEPES) buffer system containing 200 mM NaCl, 0.04 mM EDTA, 1 mM ATP and 2.5 mM MgCl2(pH 8.0). After reacting for 0, 10, 30, 60 or 120 min in the presence of 400 nM concentration of 2b or 2c peptide, 3 μl of each reaction mixture was mixed with 5 μl of RNA gel loading buffer {95% formamide, 10 mM ethylenediaminetetraacetic acid (EDTA), 0.05% FF (xylene cyanol FF)} and incubated for 5 min at 65° C. The amount of the reaction product was determined by gel running in 15% polyacrylamide gel containing 7M urea, and then the initial reaction velocity (V0) from each reaction was compared. The initial reaction velocity (V0) of the enzyme is the reaction velocity of the initial linear time (until 30 min). Each initial velocity was normalized with the initial velocity from each substrate condition without peptide treatment. The initial reaction velocity of Dicer for pre-let7a-1 and pre-miR16-1 without peptide treatment were […] and 0.018 fmole/min, respectively. Each of the initial reaction velocity is a mean data of more than 3 measurements, and the standard deviation is shown as error bars.

For test [2], the system named is mature miR16-1 in HCT116 cells. The test can be described thus: Production of mature miRNA in HCT116 cells by northern blotting. The format is cell-based. The following applies: 2 μM peptide, 3 hrs, FIG. 4. The protocol: The HCT116 cell was purchased from American Type Culture Collection (ATCC) and was cultured in RPMI1640 medium at 37° C., under 5% CO2. Total RNA was extracted using Trizol reagent (Invitrogen) according to the manufactures recommended protocol.
The change in RNA amount was analyzed by culturing the cells with 2 μM concentration of peptide 2b or peptide 2c and with lipofectamine.
HCT116 cells were treated with 2 μM of peptide 2b, 2c, 1e or 0.2 μg/ml of doxorubicin for 3 hrs before analyzing the production of mature miRNA in total RNA using northern blotting. The 18S rRNA band intensity was used as the loading control. […] Peptide 1e was used as a negative control. Decade marker (Ambion) and 10˜20 μg of total RNA were separated by using 12.5% polyacrylamide gel containing 7M urea in 20 mM of 3-(N-morpholino)propanesulfonic acid (MOPS)-NaOH(pH 7.0) buffer at 350V for 2 hrs. RNA blotting was performed by chemical cross-linking method. Each of the separated RNA was transferred with the neutral nylon membrane (Hybond NX, Amersham/Pharmacia) and crosslinked to the membrane using 1-ethyl-3-(3-dimethylaminopropyl)carbodiimide (EDC). The membrane was prehybridized with the hybridization buffer (Clontech, CA, USA) containing 50 μl of 10 mg/ml of salmon sperm DNA. Next, the isotope labeled probe DNA which is complementary to the miRNA sequence was hybridized for 2 hrs in the same buffer condition.
The probe was isotope labeled with 25 μCi of [γ-^32P] ATP (New England Biolabs) and 5 units of polynucleotide kinase (New England Biolabs). The probe was ethanol precipitated and dissolved in 50 μl of DEPC treated water for use. The membrane was washed twice for 30 min with 200 ml of wash buffer containing 0.3 M NaCl, 0.03 M sodium citrate and 0.05% sodium dodecyl sulfate (SDS)(pH 7.0), then washed twice for 15 min with 200 ml of wash buffer containing 0.015 M NaCl, 0.0015 M sodium citrate and 0.1% SDS(pH 7.0). The membrane was exposed on the phosphorimager screen and each of the band intensity was detected by FLA-3000 and analyzed by using MultiGauge Ver. 3.0 software (Fuji Photo).

Entries after “also recorded” stand apart in the source; their conditions may differ.

As to “WKKLLKLLKKWLKLAG [Peptide 2c, Ac-WKKLLKLLKKWLKLAG, 14]”, the “initial reaction velocity (V0) of Dicer, normalized to no peptide” value in test [1] is given as “increase in initial reaction velocity; also recorded: accelerated”.
Consider “WKKLLKWLKKLLKLAG [Peptide 2b, Ac-WKKLLKWLKKLLKLAG, 13]”, for which, in test [2], the “level of mature miR16-1” value is on record as “increased”. Also, the “initial reaction velocity (V0) of Dicer, normalized to no peptide” value in test [1] was “significantly increased; also recorded: accelerated”.

These data come from patent publication US20110230367A1, “Amphiphilic Peptides Promoting Production of Target miRNA and Method of Regulating Production of Target miRNA” (SNU R&DB FOUNDATION, priority 2009, published 2011).
